Measured values taken from ChEMBL document CHEMBL5465560, “Selectivity Literature for EUbOPEN Chemogenomic Library” (2024).

Key:
[1] = biological target: Mitotic checkpoint serine/threonine-protein kinase BUB1 (Homo sapiens, UniProt O43683); test: Selectivity interaction (Ambit KINOMEscan and KiNATiv profiling in Jurkat cells) EUB0000090b BUB1; format: cell-based; settings: at 1 µM
[2] = biological target: T1, Mitogen-activated protein kinase kinase kinase 2 (Homo sapiens) (UniProt Q9Y2U5); test: Selectivity interaction (KinomeScan (DiscoverX)) EUB0000618a MAP3K2; settings: at 10 µM
T1 sequence (whole entry): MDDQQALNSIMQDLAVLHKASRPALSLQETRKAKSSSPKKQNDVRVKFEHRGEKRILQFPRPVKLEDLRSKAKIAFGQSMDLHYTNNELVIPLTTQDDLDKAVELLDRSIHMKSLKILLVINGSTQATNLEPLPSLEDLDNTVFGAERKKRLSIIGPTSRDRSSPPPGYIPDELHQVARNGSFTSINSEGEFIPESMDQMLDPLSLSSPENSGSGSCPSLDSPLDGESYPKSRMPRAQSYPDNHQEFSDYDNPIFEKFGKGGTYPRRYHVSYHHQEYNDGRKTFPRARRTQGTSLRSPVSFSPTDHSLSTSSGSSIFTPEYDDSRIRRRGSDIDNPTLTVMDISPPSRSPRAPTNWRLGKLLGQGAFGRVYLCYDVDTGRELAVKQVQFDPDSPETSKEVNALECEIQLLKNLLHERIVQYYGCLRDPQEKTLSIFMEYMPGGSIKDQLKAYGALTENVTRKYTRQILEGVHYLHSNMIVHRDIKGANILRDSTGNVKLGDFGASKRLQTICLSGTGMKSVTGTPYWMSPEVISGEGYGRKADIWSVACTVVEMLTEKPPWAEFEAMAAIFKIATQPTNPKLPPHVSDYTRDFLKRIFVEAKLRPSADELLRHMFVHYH

[3] = biological target: Rho-associated protein kinase 1 (Homo sapiens) (UniProt Q13464); test: Selectivity interaction (SelectScreen profiling (Invitrogen)) EUB0000607a ROCK1; settings: at 2 µM
[4] = biological target: CDK4/Cyclin D3 (Homo sapiens) (UniProt P11802+P30281); test: (§1) Selectivity interaction (KinomeScan (DiscoverX)) EUB0001619a CDK4; format: protein-complex assay; settings: at 1 µM
[5] = biological target: Cyclin-dependent kinase 4/cyclin D1 (Homo sapiens) (UniProt P11802+P24385); test: as §1; format: protein-complex assay; settings: at 1 µM
[6] = biological target: Ribosomal protein S6 kinase alpha-5 (Homo sapiens) (UniProt O75582); test: Selectivity interaction (Kinase panel (DSF assay)) EUB0001558a RPS6KA5
[7] = biological target: Vascular endothelial growth factor receptor 3 (Homo sapiens, UniProt P35916); test: Selectivity interaction (KinomeScan (DiscoverX)) EUB0000045b FLT4
[8] = biological target: T1, Mitogen-activated protein kinase kinase kinase 2 (Homo sapiens); test: Selectivity interaction (KinomeScan (DiscoverX)) EUB0000595a MAP3K2; settings: at 10 µM
[9] = biological target: Protein arginine N-methyltransferase 5 (Homo sapiens, UniProt O14744); test: Selectivity interaction (Scintillation proximity assays) EUB0000230b PRMT5
[10] = biological target: Cyclin-dependent kinase 9 (Homo sapiens, UniProt P50750); test: Selectivity interaction (KinomeScan (DiscoverX)) EUB0001049a CDK9; settings: at 1 µM
[11] = biological target: Homeodomain-interacting protein kinase 4 (Homo sapiens, UniProt Q8NE63); test: Selectivity interaction (Enzymatic assay (Eurofins)) EUB0001049a HIPK4
[12] = biological target: Fibroblast growth factor receptor 1 (Homo sapiens, UniProt P11362); test: Selectivity interaction (KinomeScan (DiscoverX)) EUB0000666a FGFR1; settings: at 10 µM
[13] = biological target: Protein kinase C eta type (Homo sapiens) (UniProt P24723); test: Selectivity interaction (KinomeScan (DiscoverX)) EUB0000092b PRKCH; settings: at 10 µM
[14] = biological target: T2, Serine/threonine-protein kinase TAO1 (Homo sapiens) (UniProt Q7L7X3); test: Selectivity interaction (LanthaScreen Eu Kinase Binding Assay) EUB0001632a TAOK1; settings: at 10 µM
T2 sequence (whole entry): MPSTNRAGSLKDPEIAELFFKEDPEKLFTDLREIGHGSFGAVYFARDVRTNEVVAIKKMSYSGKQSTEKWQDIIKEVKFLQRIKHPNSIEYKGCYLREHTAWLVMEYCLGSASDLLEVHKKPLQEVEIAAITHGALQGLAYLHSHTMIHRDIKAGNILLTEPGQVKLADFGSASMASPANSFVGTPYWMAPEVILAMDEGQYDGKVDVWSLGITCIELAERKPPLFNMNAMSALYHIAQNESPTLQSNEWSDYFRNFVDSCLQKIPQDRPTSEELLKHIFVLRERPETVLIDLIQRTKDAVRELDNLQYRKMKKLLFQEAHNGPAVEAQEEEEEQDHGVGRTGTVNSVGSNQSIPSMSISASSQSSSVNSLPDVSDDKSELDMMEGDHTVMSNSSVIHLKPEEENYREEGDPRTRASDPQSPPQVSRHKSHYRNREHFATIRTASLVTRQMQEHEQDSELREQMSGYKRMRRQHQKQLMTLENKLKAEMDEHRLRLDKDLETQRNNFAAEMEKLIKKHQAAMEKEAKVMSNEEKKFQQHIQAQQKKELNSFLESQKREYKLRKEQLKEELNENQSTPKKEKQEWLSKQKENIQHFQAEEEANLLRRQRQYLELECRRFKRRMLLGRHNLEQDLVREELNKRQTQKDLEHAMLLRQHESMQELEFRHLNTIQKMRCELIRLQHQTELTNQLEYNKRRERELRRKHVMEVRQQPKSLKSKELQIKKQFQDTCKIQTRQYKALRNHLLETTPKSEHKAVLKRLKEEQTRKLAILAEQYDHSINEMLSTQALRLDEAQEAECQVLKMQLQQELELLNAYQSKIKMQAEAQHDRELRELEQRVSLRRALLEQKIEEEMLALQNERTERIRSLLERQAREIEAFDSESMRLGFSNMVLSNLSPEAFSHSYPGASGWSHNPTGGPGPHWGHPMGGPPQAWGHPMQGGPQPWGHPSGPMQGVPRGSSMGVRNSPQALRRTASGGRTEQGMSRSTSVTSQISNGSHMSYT

[15] = biological target: T3, cAMP-dependent protein kinase catalytic subunit PRKX (Homo sapiens) (UniProt P51817); test: Selectivity interaction (Kinase screening (Nanosyn)) EUB0000604a PRKX
T3 sequence (whole entry): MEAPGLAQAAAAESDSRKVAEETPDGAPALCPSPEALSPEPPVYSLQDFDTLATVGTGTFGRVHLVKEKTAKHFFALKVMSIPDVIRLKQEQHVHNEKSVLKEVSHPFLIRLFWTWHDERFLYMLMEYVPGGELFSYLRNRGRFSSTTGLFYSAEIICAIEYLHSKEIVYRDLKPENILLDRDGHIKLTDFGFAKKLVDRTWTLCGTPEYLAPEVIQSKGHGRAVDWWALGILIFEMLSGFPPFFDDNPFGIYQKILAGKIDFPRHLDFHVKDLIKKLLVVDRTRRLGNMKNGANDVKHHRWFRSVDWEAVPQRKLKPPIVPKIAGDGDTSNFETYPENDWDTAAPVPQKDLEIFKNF

Vascular endothelial growth factor receptor 3, sequence (P35916 whole entry): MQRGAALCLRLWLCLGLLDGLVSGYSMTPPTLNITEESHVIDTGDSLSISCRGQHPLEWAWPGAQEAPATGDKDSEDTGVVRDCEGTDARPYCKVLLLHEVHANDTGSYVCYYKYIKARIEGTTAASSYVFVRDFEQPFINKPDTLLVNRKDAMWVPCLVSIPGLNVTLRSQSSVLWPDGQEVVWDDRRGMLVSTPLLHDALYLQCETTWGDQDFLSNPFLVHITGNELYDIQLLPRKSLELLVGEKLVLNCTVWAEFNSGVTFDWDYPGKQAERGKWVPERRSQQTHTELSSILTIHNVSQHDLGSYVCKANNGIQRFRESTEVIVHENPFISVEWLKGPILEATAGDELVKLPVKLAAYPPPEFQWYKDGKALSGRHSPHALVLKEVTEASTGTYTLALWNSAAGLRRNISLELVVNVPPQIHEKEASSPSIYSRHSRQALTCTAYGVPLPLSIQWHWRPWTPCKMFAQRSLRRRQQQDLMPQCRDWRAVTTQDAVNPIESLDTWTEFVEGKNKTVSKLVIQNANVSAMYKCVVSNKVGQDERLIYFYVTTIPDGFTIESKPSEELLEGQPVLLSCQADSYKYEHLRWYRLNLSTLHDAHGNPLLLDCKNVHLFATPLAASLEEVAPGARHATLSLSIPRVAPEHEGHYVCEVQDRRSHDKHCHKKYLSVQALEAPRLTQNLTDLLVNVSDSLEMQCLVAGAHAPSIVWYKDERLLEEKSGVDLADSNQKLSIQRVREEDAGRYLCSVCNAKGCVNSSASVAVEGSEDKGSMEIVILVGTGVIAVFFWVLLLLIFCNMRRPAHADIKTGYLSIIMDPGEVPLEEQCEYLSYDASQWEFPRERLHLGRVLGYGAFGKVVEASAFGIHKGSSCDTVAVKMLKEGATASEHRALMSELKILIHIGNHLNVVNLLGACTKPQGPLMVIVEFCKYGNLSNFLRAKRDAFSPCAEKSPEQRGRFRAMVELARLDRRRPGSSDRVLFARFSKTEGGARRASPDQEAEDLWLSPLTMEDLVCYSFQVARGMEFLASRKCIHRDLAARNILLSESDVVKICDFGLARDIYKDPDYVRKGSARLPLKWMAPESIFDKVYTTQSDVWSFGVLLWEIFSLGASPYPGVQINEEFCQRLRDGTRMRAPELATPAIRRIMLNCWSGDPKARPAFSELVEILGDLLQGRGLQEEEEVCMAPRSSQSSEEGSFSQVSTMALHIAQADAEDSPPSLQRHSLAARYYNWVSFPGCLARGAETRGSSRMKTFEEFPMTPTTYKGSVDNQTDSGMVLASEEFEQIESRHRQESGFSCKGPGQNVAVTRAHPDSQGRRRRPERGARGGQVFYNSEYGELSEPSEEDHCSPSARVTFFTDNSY
Protein arginine N-methyltransferase 5, sequence (O14744 whole entry): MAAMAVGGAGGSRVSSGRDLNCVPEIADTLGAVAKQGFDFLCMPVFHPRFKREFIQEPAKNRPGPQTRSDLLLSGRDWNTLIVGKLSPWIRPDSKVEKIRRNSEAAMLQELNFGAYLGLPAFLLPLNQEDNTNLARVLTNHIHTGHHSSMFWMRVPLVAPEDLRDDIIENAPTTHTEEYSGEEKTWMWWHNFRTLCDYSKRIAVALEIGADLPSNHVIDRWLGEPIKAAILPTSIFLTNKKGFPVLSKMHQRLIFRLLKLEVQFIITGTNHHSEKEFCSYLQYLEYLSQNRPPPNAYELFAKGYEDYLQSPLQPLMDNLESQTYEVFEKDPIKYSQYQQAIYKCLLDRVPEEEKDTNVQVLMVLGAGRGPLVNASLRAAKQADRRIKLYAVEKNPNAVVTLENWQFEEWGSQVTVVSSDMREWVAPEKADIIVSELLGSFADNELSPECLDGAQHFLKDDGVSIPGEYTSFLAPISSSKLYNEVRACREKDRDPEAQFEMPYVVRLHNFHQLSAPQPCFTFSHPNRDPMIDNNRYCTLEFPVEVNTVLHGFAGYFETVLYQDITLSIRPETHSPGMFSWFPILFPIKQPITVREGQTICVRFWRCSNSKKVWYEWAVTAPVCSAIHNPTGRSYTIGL
Mitotic checkpoint serine/threonine-protein kinase BUB1, sequence (O43683 whole entry, looked up): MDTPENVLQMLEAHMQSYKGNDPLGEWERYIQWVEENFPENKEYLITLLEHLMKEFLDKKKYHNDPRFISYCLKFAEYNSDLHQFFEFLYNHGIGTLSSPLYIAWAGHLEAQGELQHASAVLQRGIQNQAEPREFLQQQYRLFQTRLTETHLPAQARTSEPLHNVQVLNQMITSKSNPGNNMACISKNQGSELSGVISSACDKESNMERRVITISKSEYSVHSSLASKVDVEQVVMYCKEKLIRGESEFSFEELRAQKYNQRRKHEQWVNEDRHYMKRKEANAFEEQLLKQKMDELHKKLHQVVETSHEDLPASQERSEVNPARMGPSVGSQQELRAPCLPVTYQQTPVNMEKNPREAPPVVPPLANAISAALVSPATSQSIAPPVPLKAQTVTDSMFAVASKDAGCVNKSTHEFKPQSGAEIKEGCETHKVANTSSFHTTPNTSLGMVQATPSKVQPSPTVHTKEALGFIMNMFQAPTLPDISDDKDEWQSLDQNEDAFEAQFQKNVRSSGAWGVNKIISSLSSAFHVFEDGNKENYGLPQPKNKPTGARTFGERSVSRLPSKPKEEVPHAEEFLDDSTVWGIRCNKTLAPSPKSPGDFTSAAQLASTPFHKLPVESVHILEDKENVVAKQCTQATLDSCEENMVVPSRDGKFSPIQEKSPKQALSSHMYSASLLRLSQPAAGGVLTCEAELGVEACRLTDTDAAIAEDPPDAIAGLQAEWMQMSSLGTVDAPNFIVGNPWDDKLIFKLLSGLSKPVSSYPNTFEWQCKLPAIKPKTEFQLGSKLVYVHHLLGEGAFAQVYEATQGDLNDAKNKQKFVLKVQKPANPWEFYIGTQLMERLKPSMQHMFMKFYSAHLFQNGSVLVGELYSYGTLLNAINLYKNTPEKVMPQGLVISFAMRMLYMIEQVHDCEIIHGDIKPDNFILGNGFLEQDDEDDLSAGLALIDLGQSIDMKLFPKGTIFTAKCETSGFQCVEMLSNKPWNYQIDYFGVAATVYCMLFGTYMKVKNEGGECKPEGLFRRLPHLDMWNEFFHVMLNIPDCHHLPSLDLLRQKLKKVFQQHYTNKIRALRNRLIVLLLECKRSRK
Ribosomal protein S6 kinase alpha-5 (Homo sapiens), sequence (O75582 whole entry, looked up): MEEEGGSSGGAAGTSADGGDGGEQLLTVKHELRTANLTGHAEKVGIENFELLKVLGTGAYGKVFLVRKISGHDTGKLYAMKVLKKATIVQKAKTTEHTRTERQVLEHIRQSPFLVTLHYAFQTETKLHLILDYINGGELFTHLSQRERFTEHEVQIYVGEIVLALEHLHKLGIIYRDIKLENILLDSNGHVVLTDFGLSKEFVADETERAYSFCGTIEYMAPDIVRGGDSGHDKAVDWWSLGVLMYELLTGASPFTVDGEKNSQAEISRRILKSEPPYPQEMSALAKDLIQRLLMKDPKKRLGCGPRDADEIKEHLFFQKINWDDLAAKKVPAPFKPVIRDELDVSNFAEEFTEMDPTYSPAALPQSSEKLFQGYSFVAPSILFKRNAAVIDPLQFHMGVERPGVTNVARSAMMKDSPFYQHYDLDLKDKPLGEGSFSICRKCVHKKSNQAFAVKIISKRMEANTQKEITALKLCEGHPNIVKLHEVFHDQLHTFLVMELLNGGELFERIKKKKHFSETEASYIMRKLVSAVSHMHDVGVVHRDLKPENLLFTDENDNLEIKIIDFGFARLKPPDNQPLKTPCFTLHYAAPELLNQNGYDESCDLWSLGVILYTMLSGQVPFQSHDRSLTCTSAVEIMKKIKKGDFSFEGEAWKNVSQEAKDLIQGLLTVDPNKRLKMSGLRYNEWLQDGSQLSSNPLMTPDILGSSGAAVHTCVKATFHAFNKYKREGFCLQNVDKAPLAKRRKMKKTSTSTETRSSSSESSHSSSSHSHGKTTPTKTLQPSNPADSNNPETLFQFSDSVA
Cyclin-dependent kinase 9, sequence (P50750 whole entry): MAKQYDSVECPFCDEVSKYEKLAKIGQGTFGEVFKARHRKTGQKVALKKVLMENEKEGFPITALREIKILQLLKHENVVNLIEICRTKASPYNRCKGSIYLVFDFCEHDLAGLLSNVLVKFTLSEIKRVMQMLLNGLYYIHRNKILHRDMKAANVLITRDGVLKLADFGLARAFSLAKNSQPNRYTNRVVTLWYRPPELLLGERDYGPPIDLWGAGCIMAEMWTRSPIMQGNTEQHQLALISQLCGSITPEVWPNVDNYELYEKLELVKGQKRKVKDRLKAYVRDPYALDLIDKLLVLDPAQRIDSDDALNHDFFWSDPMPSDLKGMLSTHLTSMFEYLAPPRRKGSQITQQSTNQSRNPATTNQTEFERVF
Fibroblast growth factor receptor 1, sequence (P11362 22-822 limits assumed): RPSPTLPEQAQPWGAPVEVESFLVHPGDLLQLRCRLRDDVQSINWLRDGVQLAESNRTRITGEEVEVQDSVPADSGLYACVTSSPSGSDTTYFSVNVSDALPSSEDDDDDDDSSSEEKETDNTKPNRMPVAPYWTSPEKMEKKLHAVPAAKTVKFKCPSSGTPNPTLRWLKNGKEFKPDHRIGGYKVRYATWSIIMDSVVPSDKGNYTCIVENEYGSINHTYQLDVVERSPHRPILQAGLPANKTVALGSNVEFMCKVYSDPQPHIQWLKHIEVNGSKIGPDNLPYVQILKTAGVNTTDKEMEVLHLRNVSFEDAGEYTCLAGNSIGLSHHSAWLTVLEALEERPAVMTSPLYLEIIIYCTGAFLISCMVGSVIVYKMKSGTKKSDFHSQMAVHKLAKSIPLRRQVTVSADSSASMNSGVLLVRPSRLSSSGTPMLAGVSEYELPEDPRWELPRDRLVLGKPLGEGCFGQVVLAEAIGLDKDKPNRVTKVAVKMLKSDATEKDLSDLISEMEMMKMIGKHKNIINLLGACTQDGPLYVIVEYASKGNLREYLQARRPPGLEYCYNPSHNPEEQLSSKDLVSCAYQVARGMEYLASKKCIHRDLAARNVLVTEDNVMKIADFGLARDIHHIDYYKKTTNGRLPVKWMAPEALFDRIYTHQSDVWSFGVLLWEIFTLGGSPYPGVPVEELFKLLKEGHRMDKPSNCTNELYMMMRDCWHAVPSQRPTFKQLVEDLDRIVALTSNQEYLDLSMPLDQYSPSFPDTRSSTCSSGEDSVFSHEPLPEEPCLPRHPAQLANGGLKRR

How did the % of control [1] turn out when `CN(C)C/C=C/C(=O)Nc1ccc(C(=O)N2CCCC(Nc3ncc(Cl)c(-c4c[nH]c5ccccc45)n3)C2)cc1` (stereo unspecified) was run?
Its % of control is 96%.

How did the % of control [2] turn out when `O[C@H]1CC[C@H](Nc2ncc3nc(Nc4c(F)cc(F)cc4F)n([C@H]4CCOC4)c3n2)CC1` was run?
Its % of control is 82%.

With `CNC(=O)Nc1ccc(-c2nc(N3CC4CCC(C3)O4)c3cnn(C4CCC5(CC4)OCCO5)c3n2)cc1` as the compound, how does the % of inhibition [3] read?
Its % of inhibition is -8%.

What does the source list for `N#Cc1cccc(-c2c[nH]c3ncnc(N4CCOCC4)c23)c1`?
% of control [4]: 100%; % of control [5]: 65%

With `CC(C)(O)[C@H](F)CN1Cc2cc(NC(=O)c3cnn4cccnc34)c(N3CCOCC3)cc2C1=O` as the compound, how does the dTM [6] read?
Its dTM is 0.5 K.

With `C=CC(=O)Nc1cc(-n2c(=O)ccc3cnc4ccc(-c5ccc(NS(C)(=O)=O)cc5)cc4c32)ccc1C` as the compound, how does the % of control ([7]; at 1 µM) read?
The % of control was 72%.

And the % of control ([7]; at 10 µM)?
The % of control was 100%.

How did the % of control [8] turn out when `COCC(=O)NC/C=C/c1ccc2ncnc(Nc3ccc(Oc4ccc(C)nc4)c(C)c3)c2c1` [CP-724714] was run?
The % of control was 100%.

How did the IC50 [9] turn out when `CNCCN1CCC(c2cc(CN(C)C(=O)c3cccc(Oc4ccccc4)c3)ccn2)CC1` was run?
The IC50 was > 10 µM.

For `COc1cc(Nc2nc(C)cc(-c3cnn4nc(OC)ccc34)n2)cc(C(F)(F)F)c1`, which % of control [10] is on record?
The % of control was 100%.

What about the IC50 [11] of the same compound?
The IC50 was > 10 µM.

For `O=C(NOC[C@H](O)CO)c1ccc(F)c(F)c1Nc1ccc(I)cc1F`, which % of control [12] is on record?
Its % of control is 100%.

How did the % of control [13] turn out when `CCC(=O)N1CCN(c2ccc(-n3c(=O)ccc4cnc5ccc(-c6cnc7ccccc7c6)cc5c43)cc2C(F)(F)F)CC1` was run?
Its % of control is 92%.

How did the % of inhibition [14] turn out when `Cn1cc(-n2cnc3c(NCc4nc5cc(Cl)c(Cl)cc5[nH]4)nc(N4CCOCC4)nc32)cn1` was run?
Its % of inhibition is 31.8%.

`Cc1cnc(Nc2ccc(F)cc2Cl)nc1-c1c[nH]c(C(=O)N[C@H](CO)c2cccc(Cl)c2)c1` was tested. Which % of inhibition [15] did it give?
The % of inhibition was 3%.
